The values below come from ChEMBL document CHEMBL3832078.

Structures are written as SMILES. Several values for one entry are separate records, joined by “and”; a condition that tells them apart may be missing. Identical values can stand only once.

Broadly, the AUC is the area under the concentration-time curve, a measure of exposure. Broadly, the Cmax is the peak of the concentration-time curve. In general, CL/F refers to clearance divided by bioavailability, as obtained after extravascular dosing. A word on the Vd/F: it is the volume of distribution divided by bioavailability. The term half-life denotes how long it takes for the measured level to halve. A higher half-life goes with slow decline. One may read the Tmax as the time at which the peak concentration occurs.

Format in all cases: ADME, organism-based
Data set [1] concerns Homo sapiens. Put plainly: (§1) Pharmacokinetic parameters for Levofloxacin evaluated after multiple oral or IV administration of 250, 500 or 750 mg Levofloxacin, to male and/or female subjects of variable age ranges and health status. Also noted: dose 500 mg, dose 750 mg, dose 250 mg, route iv, route oral. The following applies: in vivo.
Data set [2] is described as follows: as §1. The following applies: human, in vivo; for CL renal: read-out: CL_renal. Also on record: dose 500 mg, dose 750 mg, dose 250 mg, route iv, route oral.
In data set [3] the test system is Homo sapiens. In words: (§2) Pharmacokinetic parameters for Levofloxacin evaluated after oral or IV single dose administration of 250, 500 or 750 mg Levofloxacin to male and/or female subjects of variable age ranges and health status. Also noted: dose 250 mg, dose 500 mg, dose 750 mg, route oral, route iv. The following applies: in vivo.
Data set [4] in a line: as §2. Also noted: dose 250 mg, dose 500 mg, dose 750 mg, route oral, route iv. The following applies: human, in vivo.

On to `C[C@H]1COc2c(N3CCN(C)CC3)c(F)cc3c(=O)c(C(=O)O)cn1c23.C[C@H]1COc2c(N3CCN(C)CC3)c(F)cc3c(=O)c(C(=O)O)cn1c23.O` [LEVOFLOXACIN], for which the exposure (AUC) with Homo sapiens [1] was 72.5 mcg.hr/mL [middle of 5 runs]. Further, the Cmax in the data set on Homo sapiens [1] was 8.6 mcg/mL [middle of 5 runs]. The CL/F in the data set on Homo sapiens [1] (iv) was 154 mL/min and 126 mL/min and 158 mL/min; with Homo sapiens [1] (po) it was 143 mL/min; in data set [2] (po) it was 175 mL/min; in the data set with Homo sapiens [3] (iv), 175 mL/min and 126 mL/min. For the same compound, the Vd/F with Homo sapiens [1] (iv) was 111 L and 80 L and 91 L; in the data set on Homo sapiens [1] (po), 100 L; in data set [2] (po), 102 L; in the data set on Homo sapiens [3] (iv), 90 L and 75 L; in the data set with Homo sapiens [3] (po), 83 L and 89 L and 62 L and 67 L; in data set [4] (po), 112 L. In addition, the t1/2 turned out to be 7 h in the data set with Homo sapiens [1] (iv) and 7.5 h in the data set on Homo sapiens [3] (iv). The figures for the half-life in data set [2] (iv), in data set [2] (po) and in data set [4] (iv) were 7.9 h, 8.8 h and 6.4 h, respectively. Further, the CL renal in data set [2] (iv) was determined as 99 mL/min; in data set [2] (po), 116 mL/min; in data set [4] (iv, read-out: CL_renal) it was 112 mL/min. In addition, the time to peak (Tmax) in data set [2] (po) came to 1.4 h; in data set [4] (iv) it was 1 h.
